Source: patent US3979508A, “Compositions and methods therewith for penicillin hypersensitivity detection” (Kremers-Urban Company, priority 1975, dated 1976)
Where “and” joins values, the source holds several entries; their conditions need not be identical. Equal values may be shown once.

Test system: penicillin hypersensitivity (patients)
Test: Clinical evaluation by 26 investigators: scratch/intradermal skin tests with PPL and Penicillin G (Tables IV-VII, IX-XI)
Format: in vivo, human
Details: for TOTAL (+) No. / TOTAL (+) Percent of total positive: skin reactive penicillin allergy patients
Method: Twenty-six clinical investigators contributed a total of 1160 cases to the evaluation. Patients were tested according to a protocol as follows:
1. All patients being subjected to allergy investigation were to be tested for penicillin hypersensitivity. Two preparations were to be used. These are:
2. Penicillin G (Benzyl Penicillin) in a concentration of 10,000 units per cc.
For maximum safety, it was recommended that the tests first be done by the scratch technique. Intradermal tests were then to be done on those showing negative scratch tests. In cases where the penicillin sensitivity was suspected to be of a violent character, more dilute reagents were recommended at the discretion of the individual investigator.
A uniform technique was recommended for the performance of the intradermal tests. Only a minimal amount of testing reagent was to be injected so as to make a barely discernible intradermal bleb. The amount necessary for this injection is about 0.01 to 0.03 cc. It was recognized that the intrepretation of the test results is an important matter. The reactions were to be recorded in terms of (1) the time required for the appearance of a reaction, (2) the size of erythema and (3) the size of whealing. These were to be recorded as actual measurements. Some objective measurement of dermographism was also to be recorded.
It was also contemplated that all patients who were to be treated with penicillin be tested as recommended above, even though they had previously received penicillin with impunity.
A comprehensive clinical history was takan on each patient with particular regard to previous penicillin therapy, and reaction.
In order to properly analyze the data on such a large number of patients, a data processing system was utilized.
Table IV summarizes the skin test results on all patients, without regard to other specific factors. […] It will also be noted that a significant number of patients reacted only to PPL, and another group only to Pen G. Therefore, to detect the maximum number of reactors, both test reagents would be required. A technical problem was classification of the ambiguous or borderline reactors, particularly those showing only erythema. Attempts to correlate the appearance of the erythematous flare without wheal formation with a history of penicillin hypersensitivity were unsuccessful. In some instances, however, erythema without wheal did appear to be associated with hypersensitivity to the antibiotic. The time of development of erythema without wheal varied widely from a few minutes to more than 7 days which also made its importance questionable. as a diagnostic sign. For these reasons erythema alone responses were counted with the negatives. In some instances, however, data will be presented in which erythema without wheal are counted as positive responses (figures appearing in parentheses).

[1] = Group I (675 patients): penicillin Rx, no hypersensitivity, erythema only counted as negative
[2] = Group I (675 patients): penicillin Rx, no hypersensitivity, parentheses: erythema only (ambiguous) counted as positive
[3] = Group II (352 patients): penicillin Rx & hypersensitive, erythema only counted as negative
[4] = Group II (352 patients): penicillin Rx & hypersensitive, parentheses: erythema only (ambiguous) counted as positive
[5] = Group III (70 patients): no penicillin Rx in past, erythema only counted as negative
[6] = Group III (70 patients): no penicillin Rx in past, parentheses: erythema only (ambiguous) counted as positive
[7] = Group IV (56 patients): no data, erythema only counted as negative
[8] = Group IV (56 patients): no data, parentheses: erythema only (ambiguous) counted as positive
[9] = TOTALS (1153 patients), erythema only counted as negative
[10] = TOTALS (1153 patients), parentheses: erythema only (ambiguous) counted as positive
[11] = TOTALS, all patients (1153 tested), erythema only counted as negative
[12] = TOTALS, all patients (1153 tested), parentheses: erythema only (ambiguous) counted as positive
[13] = all patients (1153 tested), erythema only counted as negative
[14] = all patients (1153 tested), parentheses: erythema only (ambiguous) counted as positive
[15] = history of therapy: Multi Courses (177 tested)
[16] = history of therapy: One Course (249 tested)
[17] = history of therapy: One Dose (152 tested)
[18] = history of therapy: TOTALS (578 tested)
[19] = penicillin reaction between 30 minutes and 24 hours post therapy (87 patients), erythema only counted as negative
[20] = penicillin reaction between 30 minutes and 24 hours post therapy (87 patients), parentheses: erythema only (ambiguous) counted as positive
[21] = penicillin reaction more than 24 hours post therapy (144 patients), erythema only counted as negative
[22] = penicillin reaction more than 24 hours post therapy (144 patients), parentheses: erythema only (ambiguous) counted as positive
[23] = penicillin reaction within 30 minutes post therapy (56 patients), erythema only counted as negative
[24] = penicillin reaction within 30 minutes post therapy (56 patients), parentheses: erythema only (ambiguous) counted as positive
[25] = reason for testing: "Penicillin" (240 tested)
[26] = reason for testing: Other Substances (463 tested)
[27] = reaction between 30 minutes and 24 hours post therapy, erythema only counted as negative
[28] = reaction between 30 minutes and 24 hours post therapy, parentheses: erythema only (ambiguous) counted as positive
[29] = reaction more than 24 hours post therapy, parentheses: erythema only (ambiguous) counted as positive
[30] = reaction within 30 minutes post therapy, parentheses: erythema only (ambiguous) counted as positive
[31] = type of hypersensitivity reaction: Skin (309 tested)
[32] = type of hypersensitivity reaction: Visceral (43 tested)

penicilloyl-poly-L-lysine [PPL]
Skin Test (+) No. [1]: 36
Skin Test (+) Percent [1]: 5.3%
Skin Test (-) No. [1]: 639
Skin Test (-) Percent [1]: 94.7%
Skin Test (+) No. [2]: 78
Skin Test (+) Percent [2]: 11.6%
Skin Test (-) No. [2]: 597
Skin Test (-) Percent [2]: 88.4%
Skin Test (+) No. [3]: 73
Skin Test (+) Percent [3]: 20.7%
Skin Test (-) No. [3]: 279
Skin Test (-) Percent [3]: 79.3%
Skin Test (+) No. [4]: 97
Skin Test (+) Percent [4]: 27.6%
Skin Test (-) No. [4]: 255
Skin Test (-) Percent [4]: 72.4%
Skin Test (+) No. [5]: 1
Skin Test (+) Percent [5]: 1.4%
Skin Test (-) No. [5]: 69
Skin Test (-) Percent [5]: 98.6%
Skin Test (+) No. [6]: 6
Skin Test (+) Percent [6]: 8.6%
Skin Test (-) No. [6]: 64
Skin Test (-) Percent [6]: 91.4%
Skin Test (+) No. [7]: 3
Skin Test (+) Percent [7]: 5.4%
Skin Test (-) No. [7]: 53
Skin Test (-) Percent [7]: 94.6%
Skin Test (+) No. [8]: 4
Skin Test (+) Percent [8]: 7.1%
Skin Test (-) No. [8]: 52
Skin Test (-) Percent [8]: 92.9%
SKIN TEST RESPONSE No. (No reactions (675 tested)): 36
SKIN TEST RESPONSE Percent (No reactions (675 tested)): 5.3%
Skin Test (-) No. [9]: 1040
Skin Test (-) Percent [9]: 90.2%
Skin Test (-) No. [10]: 968
Skin Test (-) Percent [10]: 84.0%
Skin Test (+) No. [11]: 113
Skin Test (+) Percent [11]: 9.8%
Skin Test (+) No. [12]: 185
Skin Test (+) Percent [12]: 16.1% and 16.0%
PPL (+) PG (+) No. [13]: 34
PPL (+) PG (+) Percent [13]: 3.0%
PPL (+) PG (-) No. [13]: 79
PPL (+) PG (-) Percent [13]: 6.9%
PPL (-) PG (+) No. [13]: 38
PPL (-) PG (+) Percent [13]: 3.3%
PPL (-) PG (-) No. [13]: 1002
PPL (-) PG (-) Percent [13]: 86.9%
PPL (+) PG (+) No. [14]: 80
PPL (+) PG (+) Percent [14]: 6.9%
PPL (+) PG (-) No. [14]: 105
PPL (+) PG (-) Percent [14]: 9.1%
PPL (-) PG (+) No. [14]: 49
PPL (-) PG (+) Percent [14]: 4.3%
PPL (-) PG (-) No. [14]: 919
PPL (-) PG (-) Percent [14]: 79.7%
positive skin tests, patients positive/patients in group (delayed (after 24 hours) group): 24/144
positive skin tests, percent of group (delayed (after 24 hours) group, 144 patients): 16.7%
Skin Reactions PPL- / PEN G- No. [15]: 14
Skin Reactions PPL- / PEN G- Percent [15]: 7.9%
Skin Reactions PPL- / PEN G- No. [16]: 14
Skin Reactions PPL- / PEN G- Percent [16]: 5.6%
Skin Reactions PPL- / PEN G- No. [17]: 24
Skin Reactions PPL- / PEN G- Percent [17]: 15.8%
Skin Reactions PPL- / PEN G- No. [18]: 52
Skin Reactions PPL- / PEN G- Percent [18]: 9.0%
positive skin tests, patients positive/patients in group (immediate reacting group (within 30 minutes)): 26/56
positive skin tests, percent of group (immediate reacting group (within 30 minutes), 56 patients): 46% and 46.5%
percent of skin-test positive patients that would be missed if only this reagent were used as skin test antigen (immediate reactor group): 16%
PL (+) PG (+) No. [19]: 12
PL (+) PG (+) Percent [19]: 13.8%
PPL (+) PG (-) No. [19]: 9
PPL (+) PG (-) Percent [19]: 10.4%
PPL (-) PG (+) No. [19]: 5
PPL (-) PG (+) Percent [19]: 5.7%
PPL (-) PG (-) No. [19]: 61
PPL (-) PG (-) Percent [19]: 70.0%
PL (+) PG (+) No. [20]: 14
PL (+) PG (+) Percent [20]: 16.1%
PPL (+) PG (-) No. [20]: 10
PPL (+) PG (-) Percent [20]: 11.5%
PPL (-) PG (+) No. [20]: 7
PPL (-) PG (+) Percent [20]: 8.0%
PPL (-) PG (-) No. [20]: 56
PPL (-) PG (-) Percent [20]: 64.4%
PL (+) PG (+) No. [21]: 8
PL (+) PG (+) Percent [21]: 5.6%
PPL (+) PG (-) No. [21]: 16
PPL (+) PG (-) Percent [21]: 11.1%
PPL (-) PG (+) No. [21]: 9
PPL (-) PG (+) Percent [21]: 6.2%
PPL (-) PG (-) No. [21]: 111
PPL (-) PG (-) Percent [21]: 77.1%
PL (+) PG (+) No. [22]: 11
PL (+) PG (+) Percent [22]: 7.6%
PPL (+) PG (-) No. [22]: 22
PPL (+) PG (-) Percent [22]: 15.3%
PPL (-) PG (+) No. [22]: 11
PPL (-) PG (+) Percent [22]: 7.6%
PPL (-) PG (-) No. [22]: 100
PPL (-) PG (-) Percent [22]: 69.4%
PL (+) PG (+) No. [23]: 12
PL (+) PG (+) Percent [23]: 21.4%
PPL (+) PG (-) No. [23]: 14
PPL (+) PG (-) Percent [23]: 25.0%
PPL (-) PG (+) No. [23]: 5
PPL (-) PG (+) Percent [23]: 8.9%
PPL (-) PG (-) No. [23]: 25
PPL (-) PG (-) Percent [23]: 44.6%
PL (+) PG (+) No. [24]: 15
PL (+) PG (+) Percent [24]: 26.8%
PPL (+) PG (-) No. [24]: 16
PPL (+) PG (-) Percent [24]: 28.6%
PPL (-) PG (+) No. [24]: 5
PPL (-) PG (+) Percent [24]: 8.9%
PPL (-) PG (-) No. [24]: 20
PPL (-) PG (-) Percent [24]: 35.7%
Skin Test (+) No. [25]: 31
Skin Test (+) Percent [25]: 12.9%
Skin Test (+) No. [26]: 21
Skin Test (+) Percent [26]: 4.5%
TOTAL (+) No. [27]: 21
TOTAL (+) Percent of total positive [27]: 80.8%
TOTAL (+) No. [28]: 24
TOTAL (+) Percent of total positive [28]: 77.4%
TOTAL (+) No. (reaction more than 24 hours post therapy, erythema only counted as negative): 24
TOTAL (+) No. [29]: 33
TOTAL (+) Percent of total positive [29]: 75.0%
TOTAL (+) No. (reaction within 30 minutes post therapy, erythema only counted as negative): 26
TOTAL (+) No. [30]: 31
TOTAL (+) Percent of total positive [30]: 86.1%
SKIN TEST RESPONSE No. [31]: 66
SKIN TEST RESPONSE Percent [31]: 21.4%
SKIN TEST RESPONSE No. [32]: 10
SKIN TEST RESPONSE Percent [32]: 23.3%
